Reference: PubChem BioAssay (NCI)
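Compound exposure: 48 hours, 5 concentrations, 96-well plates. GI50 marks 50% less growth. TGI is the concentration that stops growth completely.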

What was measured:
Assay in all cases: DTP human tumour cell line panel, 48 h
SK-MEL-5 melanoma = tested on: SK-MEL-5 melanoma
786-0 renal = tested on: 786-0 renal
OVCAR-4 ovarian = tested on: OVCAR-4 ovarian
SF-295 CNS = tested on: SF-295 CNS
KM12 colon = tested on: KM12 colon
A498 renal = tested on: A498 renal
SK-OV-3 ovarian = tested on: SK-OV-3 ovarian
PC-3 prostate = tested on: PC-3 prostate
BT-549 breast = tested on: BT-549 breast
LOX IMVI melanoma = tested on: LOX IMVI melanoma

Row | Compound | TGI (SK-MEL-5 melanoma) [µM] | TGI (786-0 renal) [µM] | TGI (OVCAR-4 ovarian) [µM] | TGI (SF-295 CNS) [µM] | TGI (KM12 colon) [µM] | TGI (A498 renal) [µM] | TGI (SK-OV-3 ovarian) [µM] | TGI (PC-3 prostate) [µM] | TGI (BT-549 breast) [µM] | TGI (LOX IMVI melanoma) [µM] | GI50 (SK-MEL-5 melanoma) [µM] | GI50 (PC-3 prostate) [µM] | GI50 (786-0 renal) [µM] | GI50 (BT-549 breast) [µM] | GI50 (OVCAR-4 ovarian) [µM] | GI50 (SF-295 CNS) [µM] | GI50 (KM12 colon) [µM] | GI50 (A498 renal) [µM] | GI50 (SK-OV-3 ovarian) [µM] | GI50 (LOX IMVI melanoma) [µM]
1 | Cn1c(N)nc(=O)c2c1N(C1OC(CO)C(O)C1O)CN2Cc1ccccc1 (stereo not drawn) | > 100 | > 100 | > 100 | > 100 | > 100 | > 100 | > 100 | – | – | – | – | – | – | – | – | – | – | – | – | –
2 | CC1=C(/C=C/C(C)=C/C=C/C(C)=C/C(=O)O)C(C)(C)CCC1 | 63.3 | 68.1 | > 100 | > 88.6 | 60.2 | > 91.1 | > 100 | > 100 | 63 | 52.6 | – | – | – | – | – | – | – | – | – | –
3 | COC(=O)c1cc2c3ccccc3[nH]c2c2sccc12 | 35.4 | 40.7 | 76.9 | 48.7 | 87.2 | 50.6 | > 100 | > 100 | 57 | 24.8 | 16.3 | 22.1 | 13.8 | 20.2 | 26.5 | 8.57 | 12.3 | 21 | 34.1 | 5.68
4 | Cc1[nH]c(=O)[nH]c1C(=O)c1ccc(-n2ccnc2)cc1 | > 100 | > 100 | > 100 | > 100 | > 100 | > 100 | > 100 | – | – | > 100 | – | – | – | – | – | – | – | – | – | –
5 | CCc1cc(CCC(=O)Nc2ccccc2[N+](=O)[O-])[nH]c(=S)n1 | – | > 100 | – | > 100 | > 100 | – | > 100 | – | – | > 100 | – | – | – | – | – | – | – | – | – | –
6 | CCc1ccc(C(=Nc2ccc(N(C)C(=O)CN3CCN(C)CC3)cc2)c2c(O)[nH]c3ccc(C(=O)OC)cc23)cc1 | 2.47 | 1.86 | 1.95 | 2.4 | 1.4 | 1.96 | 1.23 | 1.61 | 2.65 | 1.63 | 1.2 | 0.292 | 0.404 | 1.32 | 0.582 | 1.01 | 0.0387 | 0.398 | 0.245 | 0.337
7 | N#CC1(C#N)C2C=CC(c3coc4cccc2c34)C1(C#N)C#N (stereo not drawn) | 28.8 | 34.8 | 47.9 | 42.8 | 33.8 | 34.6 | 31.7 | – | – | 28.7 | – | – | – | – | – | – | – | – | – | –
8 | Nc1ccc(-c2cccs2)cc1NC(=O)c1ccc(CCCC(=O)Nc2ccc(C3CC3N)cc2)cc1 (stereo not drawn) | 6.23 | 3.37 | 3.3 | – | > 100 | 92 | 37.1 | – | > 100 | – | 1.91 | – | 1.61 | 2.69 | 1.52 | – | 3.43 | 20.4 | 4.37 | –
9 | C=C(C(=C)N1N=NC2C3CCC(C3)C21)N1N=NC2C3CCC(C3)C21 (stereo not drawn) | > 100 | > 100 | > 100 | > 100 | > 100 | – | – | – | – | > 100 | – | – | – | – | – | – | – | – | – | –
10 | CCOC(=O)c1cnc2c(ccc3ncccc32)c1NCCCN(CC)CC | > 100 | > 100 | > 100 | > 100 | > 100 | > 100 | > 100 | – | – | 33.6 | – | – | – | – | – | – | – | – | – | –
11 | CCCCCCCCCC(=O)OCC1OC(n2cc(F)c(=O)[nH]c2=O)C(NC(=O)OCc2ccccc2)C(OC(=O)CCCCCCCCC)C1O (stereo not drawn) | 41.5 | 36.1 | 40.6 | > 100 | > 100 | > 100 | > 100 | – | – | 30.2 | – | – | – | – | – | – | – | – | – | –
12 | NS(=O)(=O)c1ccc(N(/C=C/C(=O)C(F)(F)F)Cc2ccc(Cl)cc2)cc1 | 38 | 27 | – | > 100 | 74.5 | 41.2 | > 100 | 59 | 62.6 | 42.9 | 19.2 | 19.6 | 13.2 | 23.6 | – | 35.1 | 22.7 | 17.4 | 36 | 21.8
13 | CCOC(=O)c1cc(-c2ccccc2)[nH]c1N/N=C/c1ccc(Cl)cc1 | > 100 | > 100 | > 100 | > 100 | > 100 | – | > 100 | > 100 | > 100 | > 100 | 28.4 | 21.8 | 50.4 | 46.8 | 70.9 | > 100 | > 100 | – | > 100 | 62.1
14 | CC(C(N)C(=O)NC(C(=O)O)C1OC(n2ccc(=O)[nH]c2=O)C(O)C1O)C(O)c1ccc(O)cn1 (stereo not drawn) | > 100 | > 100 | – | > 100 | > 100 | – | – | > 100 | > 100 | > 100 | – | – | – | – | – | – | – | – | – | –
15 | CC(C)(C)c1ccc(OCCOCCOc2ccc(C(C)(C)C)cc2S(=O)(=O)Nc2ccc([N+](=O)[O-])cc2)c(S(=O)(=O)Nc2ccc([N+](=O)[O-])cc2)c1 | > 100 | > 100 | > 100 | > 100 | > 100 | 90.9 | > 100 | – | – | > 100 | – | – | – | – | – | – | – | – | – | –
16 | CC1=C(O)/C(=C/C(C)CCC/C(C)=C/C=C/C(C)CCCc2ccoc2)OC1=O (stereo not drawn) | – | 84.9 | 85.3 | 81 | > 100 | – | – | – | – | > 100 | – | – | – | – | – | – | – | – | – | –
17 | C=C1CC2CC(O)CC(C1)C2 (stereo not drawn) | > 100 | > 100 | > 100 | > 100 | > 100 | > 100 | > 100 | – | – | > 100 | – | – | – | – | – | – | – | – | – | –
18 | COc1ccc(/C=C2\CCC(CCN(C)C)(C3=CCCC3)C2=O)cc1Br (stereo not drawn) | 3.15 | 14.3 | 14.5 | 13.7 | 14.9 | 23.5 | – | – | – | 15.4 | – | – | – | – | – | – | – | – | – | –
19 | CSc1snc2sc3c(Cl)nnnc3c12 | 30.7 | 29.7 | 29.5 | 32 | 30 | 28.7 | 33.3 | – | – | 11.2 | – | – | – | – | – | – | – | – | – | –
20 | O=C(N/N=C1\C(=O)N(c2nccs2)C(=O)C(=O)C1c1nc2ccccc2s1)c1ccccc1O (stereo not drawn) | > 100 | > 100 | > 100 | > 100 | > 100 | > 100 | > 100 | – | – | > 100 | – | – | – | – | – | – | – | – | – | –
21 | C=C1C(OC(=O)/C=C/c2ccccc2)CC(OC(C)=O)C2(C)C1CC1CC(OC(C)=O)C(C)=C(C(OC(C)=O)C2OC(C)=O)C1(C)C (stereo not drawn) | > 100 | > 100 | – | > 100 | > 100 | > 100 | > 100 | – | – | > 100 | – | – | – | – | – | – | – | – | – | –
